“Also recorded” adds a separate entry of the source.
Assays:
[1] = test system: lysates of young adult wild type C. elegans; assay: Ex vivo ROS production detected by DCF fluorescence from C. elegans lysates; format: biochemical, Caenorhabditis elegans; details: 50 μM DTPA added to lysate (10 μg) of young adult wild type
Description: 2′,7′-dichlorodihydrofluorescein diacetate (DCFH-DA) at 10 μM was used as a fluorescent probe for reactive oxygen species (ROS) detection in vivo using standard protocols (33). DCFH-DA enters and accumulates in the intestinal cells, where it is oxidized by several ROS (including hydroxyl radicals) to form the fluorophore DCF(34). Analysis of fluorescence rate increase was performed on samples sonicated in 1×TBS, pH 7.4 and recovered as the supernatant from a 100,000 g centrifugation at 4° C. Total protein concentration was determined by a Nanodrop spectrophotometer (Thermo Scientific). […] Fluorescence in 8 replicate wells was quantitated (Ex: 485 nm, Em: 535 nm using a 495 nm cut-off) by a FlexStation (Molecular Devices) plate reader, using 30 reads every minute for 1 h at medium PMT setting. Values from lysate-free (negative) controls were subtracted and the fluorescence data was then base line corrected. A linear regression fitted from 20-40 minutes and the slopes were normalized against 4-day old wild type and plotted (Prism v5.0d, Graphpad Software).

[2] = test system: C. elegans; assay: Lifespan analysis of C. elegans treated with SIH; format: in vivo, Caenorhabditis elegans; details: for median lifespan: 25° C., treated from adulthood onwards, control (0 μM SIH) 12 days
Description: The effects of genetic ablation of ftn-2 and ftn-1 on wild type was measured using established protocols(11, 38). For SIH treatment compound was dissolved in dimethyl sulfoxide (Sigma-Aldrich) then added to the molten NGM at 55° C. along with 50 μg/mL amplicillin (Sigma-Aldrich). Media containing equivalent vehicle alone (0.5% v/v DMSO) and ampicillin was used for comparison. SIH data was collected using the temperature sensitive-sterile strain TJ1060. All life span assays were conducted at 25° C. following adulthood.
Kaplan-Maier survival curves were generated and compared via non-parametric Log rank tests (Prism v5.0d, Graphpad Software).

[3] = test system: C. elegans; assay: SEC-ICP-MS (LC-ICP-MS) chromatographic distribution of iron in SIH-treated C. elegans; format: in vivo, Caenorhabditis elegans
Description: Samples were homogenized in TBS (pH 8.0) with added proteinase inhibitors (EDTA-free, Roche), then clarified by a 15 min centrifugation at 175,000 g, 4° C. The protein concentration of the supernatant was determined via UV absorbance (Nanodrop, ThermoScientific) and equivalent protein amounts were size-excluded using a Bio SEC-5 (4.6×300 mm, 5 μm, Agilent) column with 200 mM ammonium nitrate (trace analysis grade, Sigma) pH 8.0 buffer the flow rate was 0.4 mL/min at 30° C. The eluant from the column was directly connected to the ICP-MS for elemental detection as previously described (37).

Compound	ROS production (DCF fluorescence) effect [1]	dose-dependency of lifespan extension ([2]; 0, 100, 250 μM SIH)	median lifespan ([2]; 100 μM SIH) [days]	median lifespan ([2]; 250 μM SIH) [days]	increase in lifespan ([2]; control versus 250 μM SIH median lifespan) [%]	Ferritin-bound iron (Peak #2) effect ([3]; 250 μM SIH, 10 day old, integration of peak area)	LMW-iron (Peak #3) effect in words ([3]; 250 μM SIH, 10 day old, integration of peak area from triplicate data)	HMW-iron (Peak #1) effect ([3]; 250 μM SIH, C. elegans aged to 10 days)	LMW-iron (Peak #3) normalized peak area change ([3]; 250 μM SIH, C. elegans aged to 10 days, versus control) [%]	total soluble zinc effect ([3]; SIH treatment (data not shown))
diethylenetriamine penta-acetic acid [DTPA]	abolished; also recorded: silenced	–	–	–	–	–	–	–	–	–
O=C(NN=Cc1ccccc1O)c1ccncc1 [SIH, salicylaldehyde isonicotinoyl hydrazone]	–	dose-dependency	17	21	75	reduced; also recorded: decreased	reduced; also recorded: lowered; also recorded: attenuated	unaffected	−43	unaffected

— US20170266174A1, “Compositions and Methods for Extending Lifespan” (COLLABORATIVE MEDICINAL DEVELOPMENT LLC, priority 2014, published 2017)
